Source: ChEMBL document CHEMBL2406999, “Vialinin A is a ubiquitin-specific peptidase inhibitor” (Bioorg Med Chem Lett, 2013)
Values belong to the compound of their own block, whether it stands above or below them. The source made the active and inactive calls. The rule behind the calls is not given here. Square brackets hold non-standard residues; d marks the D form. Peptide text beside a SMILES is read from it. * marks the point of attachment. Nle = CCCC[C@H](N)C(=O)O; Cbz = O=C(OCc1ccccc1)*

Tests used:
[1] = target: T1, Ubiquitin carboxyl-terminal hydrolase isozyme L1 (Homo sapiens, UniProt P09936); assay: Inhibition of UCH-L1 in human Z138 cells after 1 hr by immunoblotting analysis; assay type: cell-based
T1 sequence (P09936 whole entry): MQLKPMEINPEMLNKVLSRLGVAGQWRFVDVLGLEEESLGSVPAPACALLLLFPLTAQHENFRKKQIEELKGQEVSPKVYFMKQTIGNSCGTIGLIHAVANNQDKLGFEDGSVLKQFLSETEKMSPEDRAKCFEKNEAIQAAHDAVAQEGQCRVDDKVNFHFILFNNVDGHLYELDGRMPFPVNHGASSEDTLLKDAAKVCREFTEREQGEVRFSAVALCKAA

[2] = target: T2, Ubiquitin carboxyl-terminal hydrolase 5 (Homo sapiens, UniProt P45974); assay: Inhibition of USP5 in human Z138 cells after 1 hr by immunoblotting analysis; assay type: cell-based
T2 sequence (P45974 whole entry): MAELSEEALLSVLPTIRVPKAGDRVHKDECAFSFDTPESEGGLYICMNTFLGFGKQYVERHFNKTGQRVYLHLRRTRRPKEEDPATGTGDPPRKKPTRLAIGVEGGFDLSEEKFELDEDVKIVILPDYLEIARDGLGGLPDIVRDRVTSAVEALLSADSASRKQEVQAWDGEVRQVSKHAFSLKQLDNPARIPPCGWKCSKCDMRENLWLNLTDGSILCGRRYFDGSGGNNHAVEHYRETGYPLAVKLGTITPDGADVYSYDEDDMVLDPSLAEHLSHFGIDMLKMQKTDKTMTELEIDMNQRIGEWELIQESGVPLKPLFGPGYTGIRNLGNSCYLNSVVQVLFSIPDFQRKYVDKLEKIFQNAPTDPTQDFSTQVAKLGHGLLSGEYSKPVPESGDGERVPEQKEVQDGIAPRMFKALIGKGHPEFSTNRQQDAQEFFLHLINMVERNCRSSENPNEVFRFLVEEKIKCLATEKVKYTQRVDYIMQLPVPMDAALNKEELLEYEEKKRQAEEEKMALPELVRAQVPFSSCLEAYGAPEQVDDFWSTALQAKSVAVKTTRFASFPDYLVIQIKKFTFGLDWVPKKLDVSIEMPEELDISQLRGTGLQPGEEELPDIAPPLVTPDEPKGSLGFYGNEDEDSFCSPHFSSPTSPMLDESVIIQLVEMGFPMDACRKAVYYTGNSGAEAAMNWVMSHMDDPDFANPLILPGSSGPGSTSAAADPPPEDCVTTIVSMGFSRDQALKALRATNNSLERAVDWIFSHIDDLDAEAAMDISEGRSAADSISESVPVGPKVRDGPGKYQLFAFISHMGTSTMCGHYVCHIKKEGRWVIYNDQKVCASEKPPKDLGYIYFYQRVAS

[3] = target: Ubiquitin carboxyl-terminal hydrolase 9X (Homo sapiens, UniProt Q93008); assay: Inhibition of USP9x in human Z138 cells after 1 hr by immunoblotting analysis; assay type: cell-based
Chain of Ubiquitin carboxyl-terminal hydrolase 9X (Q93008 whole entry): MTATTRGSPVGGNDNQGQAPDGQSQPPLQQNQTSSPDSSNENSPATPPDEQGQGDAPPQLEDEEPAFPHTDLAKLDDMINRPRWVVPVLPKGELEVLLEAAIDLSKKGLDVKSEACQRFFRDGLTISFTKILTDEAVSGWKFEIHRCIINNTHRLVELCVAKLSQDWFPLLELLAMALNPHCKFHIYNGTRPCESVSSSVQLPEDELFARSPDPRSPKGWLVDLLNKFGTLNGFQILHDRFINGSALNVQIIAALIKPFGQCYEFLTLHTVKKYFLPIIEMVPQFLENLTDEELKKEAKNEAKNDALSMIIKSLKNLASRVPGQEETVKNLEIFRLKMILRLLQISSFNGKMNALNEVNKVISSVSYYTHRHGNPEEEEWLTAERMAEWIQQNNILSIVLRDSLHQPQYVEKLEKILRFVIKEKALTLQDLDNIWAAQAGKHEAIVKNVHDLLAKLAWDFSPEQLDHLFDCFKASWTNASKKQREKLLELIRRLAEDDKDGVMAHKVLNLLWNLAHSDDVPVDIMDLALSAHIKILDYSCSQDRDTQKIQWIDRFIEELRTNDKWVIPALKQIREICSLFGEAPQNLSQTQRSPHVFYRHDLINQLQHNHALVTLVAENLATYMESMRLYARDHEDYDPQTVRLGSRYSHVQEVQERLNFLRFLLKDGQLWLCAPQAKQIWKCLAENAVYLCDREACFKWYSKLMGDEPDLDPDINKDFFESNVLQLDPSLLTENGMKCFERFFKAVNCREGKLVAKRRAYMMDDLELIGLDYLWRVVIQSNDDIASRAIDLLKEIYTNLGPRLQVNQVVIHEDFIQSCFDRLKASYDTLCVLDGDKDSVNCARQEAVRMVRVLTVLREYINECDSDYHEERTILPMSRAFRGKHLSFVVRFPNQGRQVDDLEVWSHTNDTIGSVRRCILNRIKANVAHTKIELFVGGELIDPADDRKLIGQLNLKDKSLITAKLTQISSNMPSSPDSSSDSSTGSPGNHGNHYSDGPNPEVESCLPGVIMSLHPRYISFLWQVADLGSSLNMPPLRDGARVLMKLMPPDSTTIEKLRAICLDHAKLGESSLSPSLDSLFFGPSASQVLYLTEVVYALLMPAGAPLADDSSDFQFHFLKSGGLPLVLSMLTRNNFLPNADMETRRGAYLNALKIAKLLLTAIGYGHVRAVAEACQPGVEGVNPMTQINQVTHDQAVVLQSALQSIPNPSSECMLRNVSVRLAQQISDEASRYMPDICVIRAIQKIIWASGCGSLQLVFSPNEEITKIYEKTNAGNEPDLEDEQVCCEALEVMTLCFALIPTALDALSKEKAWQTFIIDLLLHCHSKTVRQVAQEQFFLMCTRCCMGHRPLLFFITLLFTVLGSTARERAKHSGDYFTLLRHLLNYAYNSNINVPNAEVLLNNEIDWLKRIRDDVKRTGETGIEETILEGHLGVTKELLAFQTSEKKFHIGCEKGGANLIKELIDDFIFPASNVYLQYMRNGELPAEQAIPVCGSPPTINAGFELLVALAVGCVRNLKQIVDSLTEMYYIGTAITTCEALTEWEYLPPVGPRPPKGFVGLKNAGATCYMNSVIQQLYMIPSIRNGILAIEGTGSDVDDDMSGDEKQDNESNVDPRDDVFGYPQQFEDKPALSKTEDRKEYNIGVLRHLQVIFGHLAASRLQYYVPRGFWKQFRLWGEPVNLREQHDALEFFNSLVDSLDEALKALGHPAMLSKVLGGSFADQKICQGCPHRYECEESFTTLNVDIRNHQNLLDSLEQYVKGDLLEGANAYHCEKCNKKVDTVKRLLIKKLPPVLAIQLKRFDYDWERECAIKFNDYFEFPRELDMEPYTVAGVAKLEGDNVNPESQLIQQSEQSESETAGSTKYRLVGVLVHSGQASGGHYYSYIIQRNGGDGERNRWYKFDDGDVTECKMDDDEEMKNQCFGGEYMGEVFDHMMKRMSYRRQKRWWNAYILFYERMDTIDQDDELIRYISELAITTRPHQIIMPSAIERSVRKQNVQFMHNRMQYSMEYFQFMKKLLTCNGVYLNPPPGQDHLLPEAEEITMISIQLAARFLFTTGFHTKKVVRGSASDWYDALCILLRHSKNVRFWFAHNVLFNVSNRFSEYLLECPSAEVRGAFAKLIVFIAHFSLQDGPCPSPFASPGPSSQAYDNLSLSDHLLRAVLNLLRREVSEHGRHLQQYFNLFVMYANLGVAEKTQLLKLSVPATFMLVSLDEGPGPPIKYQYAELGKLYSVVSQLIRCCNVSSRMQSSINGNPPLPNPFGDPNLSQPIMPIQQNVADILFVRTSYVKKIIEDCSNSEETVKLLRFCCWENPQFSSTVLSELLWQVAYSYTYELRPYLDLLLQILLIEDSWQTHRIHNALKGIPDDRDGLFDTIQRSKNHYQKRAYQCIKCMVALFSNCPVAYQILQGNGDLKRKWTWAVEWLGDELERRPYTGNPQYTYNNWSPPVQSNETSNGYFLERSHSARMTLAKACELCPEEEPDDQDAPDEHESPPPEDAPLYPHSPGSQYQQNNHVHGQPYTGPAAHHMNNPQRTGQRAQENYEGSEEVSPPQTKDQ

[4] = target: T3, Ubiquitin carboxyl-terminal hydrolase 4 (Homo sapiens) (UniProt Q13107); assay: Binding affinity to human USP4 after 1 hr by SDS-PAGE analysis
T3 sequence (whole entry): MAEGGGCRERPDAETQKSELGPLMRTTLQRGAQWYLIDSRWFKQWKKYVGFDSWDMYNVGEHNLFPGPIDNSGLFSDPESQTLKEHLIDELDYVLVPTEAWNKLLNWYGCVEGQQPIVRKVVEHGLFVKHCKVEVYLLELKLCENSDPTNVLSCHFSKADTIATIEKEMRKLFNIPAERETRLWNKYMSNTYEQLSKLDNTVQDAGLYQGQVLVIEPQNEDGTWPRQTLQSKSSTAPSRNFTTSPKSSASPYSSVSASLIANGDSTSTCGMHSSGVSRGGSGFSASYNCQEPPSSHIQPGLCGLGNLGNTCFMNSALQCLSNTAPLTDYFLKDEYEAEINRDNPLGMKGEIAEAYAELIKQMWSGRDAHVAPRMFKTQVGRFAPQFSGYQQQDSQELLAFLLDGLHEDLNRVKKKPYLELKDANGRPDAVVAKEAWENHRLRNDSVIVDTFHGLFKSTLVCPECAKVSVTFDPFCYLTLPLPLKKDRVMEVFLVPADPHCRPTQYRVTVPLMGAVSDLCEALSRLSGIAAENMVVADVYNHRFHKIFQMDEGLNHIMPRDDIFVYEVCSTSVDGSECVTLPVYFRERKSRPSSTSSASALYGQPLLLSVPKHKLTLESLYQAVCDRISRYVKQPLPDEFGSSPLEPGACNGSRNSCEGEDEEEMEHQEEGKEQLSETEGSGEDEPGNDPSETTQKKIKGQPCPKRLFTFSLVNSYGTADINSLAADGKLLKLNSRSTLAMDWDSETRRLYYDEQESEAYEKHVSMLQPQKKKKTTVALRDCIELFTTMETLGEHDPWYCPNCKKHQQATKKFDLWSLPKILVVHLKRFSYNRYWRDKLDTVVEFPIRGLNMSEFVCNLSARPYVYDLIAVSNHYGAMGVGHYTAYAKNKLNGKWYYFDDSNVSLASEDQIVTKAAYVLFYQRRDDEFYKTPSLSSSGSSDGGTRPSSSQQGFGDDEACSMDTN

RBL-2H3 = assay: Binding affinity to USP5 in rat RBL2H3 cell extracts at 1 to 100 uM by SDS-PAGE analysis; assay type: cell-free
[5] = target: T4, Ubiquitin carboxyl-terminal hydrolase 5 (Homo sapiens) (UniProt P45974); assay: Inhibition of wild type human USP5 expressed in Escherichia coli BL21(DE3) using K48-linked tetraubiquitin as substrate assessed as substrate hydrolysis at 5 to 50 uM after 15 mins by SDS-PAGE analysis
T4 sequence (whole entry): T2 sequence (P45974 whole entry)

[6] = target: T4, Ubiquitin carboxyl-terminal hydrolase 5 (Homo sapiens); assay: Binding affinity to human recombinant USP5 by SDS-PAGE analysis
[7] = target: Ubiquitin carboxyl-terminal hydrolase isozyme L1 (Homo sapiens) (UniProt P09936); assay: Binding affinity to human UCH-L1 after 1 hr by SDS-PAGE analysis
[8] = target: T4, Ubiquitin carboxyl-terminal hydrolase 5 (Homo sapiens); assay: Inhibition of human USP5 using Ub4 as substrate at 50 uM after 10 mins by SDS-PAGE analysis
[9] = target: T4, Ubiquitin carboxyl-terminal hydrolase 5 (Homo sapiens); assay: Inhibition of human USP5 using Ub-AMC as substrate at 1 to 20 uM after 10 mins by fluorometric analysis
[10] = target: Ubiquitin carboxyl-terminal hydrolase isozyme L1 (Homo sapiens) (UniProt P09936); assay: Inhibition of human UCH-L1 using Ub-AMC as substrate at 1 to 20 uM after 10 mins by fluorometric analysis
[11] = target: T4, Ubiquitin carboxyl-terminal hydrolase 5 (Homo sapiens); assay: Inhibition of wild type human USP5 expressed in Escherichia coli BL21(DE3) using K48-linked tetraubiquitin as substrate assessed as substrate hydrolysis at 20 uM after 15 mins by SDS-PAGE analysis
[12] = target: T3, Ubiquitin carboxyl-terminal hydrolase 4 (Homo sapiens); assay: Inhibition of human USP4 using Ub-AMC as substrate at 1 to 20 uM after 10 mins by fluorometric analysis
[13] = target: T4, Ubiquitin carboxyl-terminal hydrolase 5 (Homo sapiens); assay: Competitive binding affinity to human recombinant USP5 after 1 hr by SDS-PAGE analysis in presence of biotin-DMT

SMILES: CCC[C@H](NC(=O)/C(C#N)=C/c1cccc(Br)n1)c1ccccc1
IC50 [1]: 3 µM
IC50 [2]: 3 µM
IC50 [3]: 3 µM

SMILES: Cc1c(C)c(-c2ccc(OCc3cn(CCCCCCNC(=O)CCCC[C@@H]4SC[C@@H]5NC(=O)N[C@@H]54)nn3)cc2)c(O)c(O)c1-c1ccc(O)cc1
inhibition [4]: Active
Activity (RBL-2H3): Active
inhibition [5]: Active
Activity [6]: Active
inhibition [7]: inactive

SMILES: Cc1c(C)c(-c2ccc(O)cc2)c(O)c(O)c1-c1ccc(O)cc1
inhibition [9]: Active
inhibition [10]: Active
inhibition [11]: Active
inhibition [12]: Active
Activity [13]: Active

SMILES: O=C(CCCC[C@@H]1SC[C@@H]2NC(=O)N[C@@H]21)NCCCCCCn1cc(COc2ccccc2)nn1
Activity [6]: inactive

Now from value to compound:

inhibition [8]: inactive
SMILES: COc1ccc(C(=O)ONC(=O)CNC(=O)[C@H](Cc2ccccc2)NC(=O)OCc2ccccc2)cc1

inhibition [8]: inactive
SMILES: CC(C)C[C@H](NC(=O)OCc1ccccc1)C(=O)N[C@H](C=O)Cc1ccccc1 (Cbz-Leu-Phe-aldehyde)

inhibition [8]: inactive
SMILES: CCCC[C@@H](C=O)NC(=O)[C@H](CC(C)C)NC(=O)[C@H](CC(C)C)NC(C)=O (Ac-Leu-Leu-[Nle]-aldehyde)
